# Data published in PubChem BioAssay (NCI).
#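 How tested: cells in 96-well plates exposed to compound for 48 hours at five concentrations. At the GI50, growth is halved. TGI denotes the concentration required for complete inhibition of growth.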
# Experiments:
# Assay in all cases: NCI-60 cell line screen, 48 h
# [1] = system: SF-268 CNS
# [2] = system: UACC-257 melanoma
# [3] = system: A549 NSCLC
# [4] = system: HOP-62 NSCLC
# [5] = system: HCC-2998 colon
# [6] = system: ACHN renal
# [7] = system: HL-60(TB) leukemia
# [8] = system: SF-295 CNS
# [9] = system: CCRF-CEM leukemia
# [10] = system: NCI-H23 lung
Structure (SMILES),TGI [1],TGI [2],TGI [3],TGI [4],TGI [5],TGI [6],TGI [7],TGI [8],TGI [9],TGI [10],GI50 [1],GI50 [10],GI50 [2],GI50 [3],GI50 [4],GI50 [5],GI50 [6],GI50 [7],GI50 [8],GI50 [9]
NNC(=S)N/N=C(\C(=O)Nc1cccc(O)c1)C1C(=O)NC(=S)NC1=O,> 100 µM,> 100 µM,> 100 µM,> 100 µM,> 100 µM,> 100 µM,> 100 µM,> 100 µM,> 100 µM,,,,,,,,,,,
COC(=O)c1n[nH]c(C)c1N=NN(C)CCC#N,50 µM,> 100 µM,> 100 µM,37 µM,44.1 µM,25.4 µM,87.6 µM,73.4 µM,41.5 µM,36.5 µM,,,,,,,,,,
CC1=CC(=O)C2=C(C)CCC3C(C)C(=O)OC3C12 (configuration not stated),> 100 µM,> 100 µM,> 100 µM,> 100 µM,> 100 µM,> 100 µM,> 100 µM,> 100 µM,> 100 µM,> 100 µM,,,,,,,,,,
CCSCC1CC(O)(c2ccccc2)CC(c2ccc(F)cc2)O1 (configuration not stated),6.11 µM,5.26 µM,11 µM,3.29 µM,7.11 µM,6.56 µM,4.56 µM,3.92 µM,5.91 µM,5.28 µM,2.41 µM,2.1 µM,2.27 µM,2.74 µM,1.75 µM,2.56 µM,2.37 µM,2.19 µM,1.9 µM,1.86 µM
C[C@@H](NC1CCCC[C@H]1O)c1ccccc1 (some centres not stated),> 100 µM,> 100 µM,> 100 µM,> 100 µM,> 100 µM,> 100 µM,> 100 µM,> 100 µM,> 100 µM,> 100 µM,,,,,,,,,,
CCCCCCCCCCCCOC1C(CNC(=O)C2OC3OC(C)(C)OC3C2NC(=O)Nc2ccc(CC(=O)OC)cc2)OC2OC(C)(C)OC21 (configuration not stated),> 100 µM,> 100 µM,> 100 µM,> 100 µM,> 100 µM,> 100 µM,> 47.9 µM,> 49.5 µM,> 100 µM,> 100 µM,> 100 µM,> 100 µM,> 100 µM,> 100 µM,> 50.2 µM,> 100 µM,> 100 µM,,> 34.8 µM,> 19.6 µM
Fc1cccc(COc2ccc(Nc3ncnc4sc(-c5cccs5)cc34)cc2Cl)c1,> 22.8 µM,> 14 µM,> 25 µM,9.86 µM,> 18.4 µM,7.24 µM,> 25 µM,> 25 µM,> 25 µM,> 25 µM,11.4 µM,> 13.6 µM,1.42 µM,9.32 µM,4.88 µM,5.25 µM,3.24 µM,> 25 µM,9.81 µM,> 25 µM
COC(=O)CCC(NC(=S)N/N=C(\C)c1cnc2ccccc2n1)C(=O)OC (configuration not stated),> 100 µM,> 100 µM,> 100 µM,> 100 µM,> 100 µM,89.2 µM,9.3 µM,> 100 µM,15.7 µM,> 100 µM,,,,,,,,,,
COc1ccc(C2CC(c3cccc(Nc4ccnc5cc(Cl)ccc45)c3)=NN2C=O)cc1 (configuration not stated),> 100 µM,34.8 µM,18.3 µM,27.6 µM,> 100 µM,> 100 µM,0.774 µM,2.57 µM,,> 81.6 µM,1.37 µM,0.967 µM,0.677 µM,0.527 µM,0.747 µM,1.68 µM,0.867 µM,0.257 µM,0.311 µM,0.434 µM
O=c1c2c(=NCCN3CCCC3)cc3c(=O)n(CCCN4CCOCC4)c(=O)c4c(-c5ccc(CN6CCCC6)cc5)cc(c(O)n1CCCN1CCOCC1)c2c4-3,0.567 µM,1.33 µM,1.39 µM,0.221 µM,0.284 µM,0.783 µM,1.64 µM,0.796 µM,1.05 µM,0.158 µM,0.0781 µM,0.0261 µM,0.194 µM,0.0288 µM,0.0255 µM,0.0556 µM,0.0257 µM,0.231 µM,0.164 µM,0.0673 µM
Cc1nc([P+](c2ccccc2)(c2ccccc2)c2ccccc2)c(Sc2sc(-c3ccccc3)nc2[P+](c2ccccc2)(c2ccccc2)c2ccccc2)o1,7.71 µM,8.81 µM,10.7 µM,13.2 µM,6.22 µM,4.92 µM,4 µM,6.77 µM,9.4 µM,5.92 µM,2.02 µM,1.99 µM,2 µM,1.87 µM,2.08 µM,2 µM,1.65 µM,1.39 µM,2.24 µM,0.959 µM
CCOC(=O)c1cc(C(=O)c2cc(OC)c(OC)c(OC)c2)n2ncccc12,> 100 µM,> 100 µM,> 100 µM,> 75.6 µM,> 100 µM,> 100 µM,0.763 µM,13.9 µM,> 100 µM,> 100 µM,3.02 µM,0.707 µM,65.7 µM,0.621 µM,0.63 µM,2.1 µM,1.34 µM,0.251 µM,0.219 µM,0.297 µM
C/C(=C1/N=C(c2cc([N+](=O)[O-])ccc2Cl)N(c2cccc(C)c2)C1=O)c1cc2ccccc2oc1=O,> 100 µM,77.3 µM,> 100 µM,> 100 µM,> 100 µM,> 100 µM,> 100 µM,> 100 µM,> 100 µM,> 100 µM,,,,,,,,,,
N#CCCN(c1ccc(C=Nc2ccccc2)cc1)S(=O)(=O)c1ccccc1,> 100 µM,> 100 µM,> 100 µM,> 100 µM,> 100 µM,,> 100 µM,> 100 µM,> 100 µM,> 100 µM,,,,,,,,,,
Cn1cc(C(=O)c2ccccc2)c2ccccc2c1=O,> 100 µM,> 100 µM,> 100 µM,71.8 µM,> 100 µM,> 100 µM,> 100 µM,> 100 µM,> 100 µM,,,,,,,,,,,
CN1c2ccccc2N(C(=O)c2ccc([N+](=O)[O-])cc2)C(CC(=O)O)c2cccn21 (configuration not stated),> 100 µM,> 100 µM,> 100 µM,> 100 µM,> 100 µM,> 100 µM,> 100 µM,> 100 µM,> 100 µM,> 100 µM,,,,,,,,,,

Structure (SMILES),TGI [1],TGI [2],TGI [3],TGI [4],TGI [5],TGI [6],TGI [7],TGI [8],TGI [9],TGI [10],GI50 [1],GI50 [10],GI50 [2],GI50 [3],GI50 [4],GI50 [5],GI50 [6],GI50 [7],GI50 [8],GI50 [9]
COc1cc(C2Cc3ncccc3-c3[nH]c(=O)c4cccnc4c32)cc(OC)c1OC (configuration not stated),> 100 µM,> 100 µM,> 100 µM,> 87.4 µM,> 100 µM,> 100 µM,2.95 µM,> 100 µM,> 100 µM,> 100 µM,0.67 µM,0.999 µM,> 100 µM,0.825 µM,0.396 µM,2.24 µM,0.669 µM,0.251 µM,0.274 µM,0.467 µM
O=C(Cc1ccc(/C=C/C(=O)c2ncc[nH]2)cc1)Nc1ccc(F)cc1,26.3 µM,30.6 µM,> 33.3 µM,12.7 µM,10.9 µM,9.62 µM,10.6 µM,11.5 µM,> 33.3 µM,9.54 µM,5.1 µM,1.91 µM,8.67 µM,6.94 µM,2.64 µM,5.43 µM,4.82 µM,1.66 µM,4.74 µM,1.68 µM
COC(=O)C(C(=O)C(=O)Nc1c(C)cccc1C)c1cnc2ccccc2n1 (configuration not stated),> 100 µM,> 100 µM,> 100 µM,,> 100 µM,> 100 µM,> 100 µM,> 100 µM,> 100 µM,> 100 µM,,,,,,,,,,
C/C(=N\NC(=S)N1CCCCC1)c1ccccn1,12.3 µM,0.442 µM,4.14 µM,3.54 µM,6.93 µM,7.34 µM,2.64 µM,4.5 µM,> 25.1 µM,9.71 µM,0.0762 µM,< 0.01 µM,< 0.01 µM,0.0235 µM,< 0.016 µM,0.243 µM,< 0.0116 µM,0.0527 µM,< 0.0115 µM,< 0.0143 µM
CN1C(=O)CCC1(O)C1C=CC=CC1 (configuration not stated),> 100 µM,> 100 µM,> 100 µM,> 100 µM,> 100 µM,> 100 µM,> 100 µM,> 100 µM,> 100 µM,> 100 µM,,,,,,,,,,
Cc1cc2nc3c4cc(O)ccc4n(CCN(C)C)c3nc2cc1C,5.89 µM,5.2 µM,5.07 µM,12.4 µM,4.71 µM,10.3 µM,1.76 µM,2.49 µM,6 µM,3.35 µM,1.25 µM,0.833 µM,2.06 µM,0.78 µM,0.676 µM,1.71 µM,0.408 µM,0.364 µM,0.573 µM,0.518 µM
CC1=Nc2ccccc2S/C1=C(/C)NNS(=O)(=O)c1ccc(C)cc1,> 100 µM,> 100 µM,> 100 µM,> 100 µM,> 100 µM,> 100 µM,> 100 µM,> 100 µM,86.7 µM,> 100 µM,,,,,,,,,,
CCN1C/C(=C\c2cc(OC)c(OC)cc2OC)C(=O)/C(=C/c2cc(OC)c(OC)cc2OC)C1,,28 µM,> 100 µM,10.4 µM,3.33 µM,4.45 µM,8.26 µM,4.89 µM,> 100 µM,15.4 µM,,3.43 µM,4.32 µM,3.67 µM,3.45 µM,1.74 µM,2.08 µM,2.84 µM,2.3 µM,2.96 µM
O=C1CSCc2sccc21,> 100 µM,> 100 µM,> 100 µM,> 100 µM,> 100 µM,> 100 µM,> 100 µM,> 100 µM,> 100 µM,> 100 µM,,,,,,,,,,
COc1ccc(NC(=O)C(=O)c2c(O)c3ccc(O)cc3oc2=O)c([N+](=O)[O-])c1,> 100 µM,> 100 µM,> 100 µM,,> 100 µM,> 100 µM,> 100 µM,> 100 µM,> 100 µM,> 100 µM,,,,,,,,,,
O=C(Nc1ccc2[nH]nc(-c3ccncc3)c2c1)[C@@H]1CCN(CC(=O)N2CCN(c3ccc(-c4ncccn4)cc3)CC2)C1,> 100 µM,,> 100 µM,> 100 µM,> 100 µM,> 100 µM,> 100 µM,> 100 µM,> 100 µM,> 100 µM,> 69.7 µM,0.0991 µM,,5.09 µM,0.281 µM,0.241 µM,2.08 µM,0.132 µM,> 100 µM,5.49 µM
CC(N)C(Cc1ccc(Cl)cc1)c1ccc(Cl)cc1 (configuration not stated),26.5 µM,,29.4 µM,28.4 µM,4.11 µM,18.5 µM,26.1 µM,23.6 µM,39 µM,27.8 µM,11.4 µM,13.4 µM,,14 µM,13.1 µM,1.96 µM,4.85 µM,10.6 µM,10.4 µM,20.3 µM
O=C1NC(Cc2ccc(O)cc2)C(=O)N2CCCC12 (configuration not stated),> 100 µM,> 100 µM,> 100 µM,> 100 µM,> 100 µM,> 100 µM,> 100 µM,> 100 µM,> 100 µM,,,,,,,,,,,
O=C(Oc1cccc2cccnc12)c1cc2c(cc1Cl)SC(N(c1ccc(F)cc1)S(=O)(=O)c1ccc(Br)s1)=NS2(=O)=O,> 100 µM,,> 100 µM,> 100 µM,> 100 µM,> 100 µM,> 100 µM,69.7 µM,> 100 µM,59 µM,35.7 µM,21.2 µM,,27.1 µM,50.8 µM,43.5 µM,33.8 µM,26.4 µM,22.4 µM,30.5 µM
Cc1c(Cl)cccc1NC(=O)C(=O)C(C(=O)c1ccccc1-c1ccccc1)C1OC(=O)c2ccccc21 (configuration not stated),61.7 µM,46.8 µM,66.8 µM,35.5 µM,31.2 µM,,49.8 µM,45 µM,96.9 µM,30.3 µM,,,,,,,,,,
Cc1cn(C2CC(O)C(COC(=O)c3ccccc3)O2)c(=O)[nH]c1=O (configuration not stated),,> 100 µM,> 100 µM,> 100 µM,> 100 µM,> 100 µM,> 100 µM,> 100 µM,> 100 µM,> 100 µM,,,,,,,,,,
